Assay: method code SF-AS, from DOI: 10.1016/s0021-9673(01)95502-5
Conditions: pH 3.4

Structure (SMILES)	logD
CC(CC(=O)O)CC(=O)c1ccc(-c2ccccc2)cc1 (stereo not drawn)	3.82
CC(CC(=O)c1ccccc1)C(=O)O (stereo not drawn)	1.62
O=C(O)CCCC(=O)c1ccc(-c2ccccc2)cc1	3.35
CCC(O)(C(=O)O)c1ccc(CC(C)C)cc1 (stereo not drawn)	3.37
COc1ccc(C(=O)CC(C)CC(=O)O)cc1Cl (stereo not drawn)	2.6
COc1ccc(C(=O)CCC(=O)O)cc1	1.38
COc1ccc(C(=O)CCCC(=O)O)cc1Cl	2.17
O=C(O)CCC(=O)c1ccccc1	1.3

Same assay, conditions: pH 3.5

Structure (SMILES)	logD
COc1ccc(C(=O)CCC(=O)O)cc1Cl	1.98
O=C(O)CCC(=O)c1ccc(Br)cc1	2.28
CC(CC(=O)c1ccc(C2CCCCC2)cc1)C(=O)O (stereo not drawn)	4.08
CC(O)(C(=O)O)c1ccc(C2CCCCC2)cc1 (stereo not drawn)	3.26
O=C(O)CCC(=O)c1ccc(C2CCCCC2)c(Cl)c1	4.36
CC(C)Oc1ccc(C(=O)CC(C)C(=O)O)cc1 (stereo not drawn)	2.5
O=C(O)CCCC(=O)c1ccc(C2CCCCC2)cc1	3.95
CC(C)COc1ccc(C(=O)CC(C)C(=O)O)cc1Cl (stereo not drawn)	3.6
CC(C)Oc1ccc(C(=O)CCC(=O)O)cc1Cl	2.78
CC(C)Oc1ccc(C(=O)CCC(=O)O)cc1	2.18
COc1ccc(C(C)(O)C(=O)O)cc1 (stereo not drawn)	0.81
CC(C)Cc1ccc(C(=O)CCCC(=O)O)cc1	3.39
COc1ccc(C(C)(O)C(=O)O)cc1Cl (stereo not drawn)	1.26
CC(C)(C)c1ccc(CC(=O)O)cc1	3.13
CCCCCCOc1ccc(C(=O)CCC(=O)O)cc1	3.88
CCC(O)(C(=O)O)c1ccc(-c2ccccc2)cc1 (stereo not drawn)	3.37
CC(CC(=O)O)CC(=O)c1ccc(OC(C)C)c(Cl)c1 (stereo not drawn)	3.4
CCc1ccc(CC(=O)O)cc1	2.43
CC(C)c1ccc(C(=O)CCC(=O)O)cc1	2.7
CC(C)c1ccc(C(=O)CCCC(=O)O)cc1	2.89
CC(C)Cc1ccc(C(=O)CCC(=O)O)cc1	3.2
CC(C)c1ccc(CC(=O)O)cc1	2.85
CC(CC(=O)O)CC(=O)c1ccc(C2CCCCC2)cc1 (stereo not drawn)	4.38
O=C(O)CCC(=O)c1ccc(C2CCCCC2)cc1	3.76

Assay: not given
Conditions: not given

Structure (SMILES)	logP
CC(CC(=O)c1ccc(-c2ccccc2)cc1)C(=O)O (stereo not drawn)	3.13
